Test results reported in ChEMBL document CHEMBL3045211, “Acute and chronic anti-inflammatory evaluation of imidazo[1,2-a]pyridine carboxylic acid derivatives and docking analysis” (Med Chem Res, 2012).
Active and inactive are the calls of the source. The calls are words filed in the database; no cut-off is given here.

Tests used:
[1] = biological target: T1, Prostaglandin G/H synthase 2 (Homo sapiens, UniProt P35354); test: Binding affinity to COX2 (unknown origin)
T1 sequence (P35354 whole entry): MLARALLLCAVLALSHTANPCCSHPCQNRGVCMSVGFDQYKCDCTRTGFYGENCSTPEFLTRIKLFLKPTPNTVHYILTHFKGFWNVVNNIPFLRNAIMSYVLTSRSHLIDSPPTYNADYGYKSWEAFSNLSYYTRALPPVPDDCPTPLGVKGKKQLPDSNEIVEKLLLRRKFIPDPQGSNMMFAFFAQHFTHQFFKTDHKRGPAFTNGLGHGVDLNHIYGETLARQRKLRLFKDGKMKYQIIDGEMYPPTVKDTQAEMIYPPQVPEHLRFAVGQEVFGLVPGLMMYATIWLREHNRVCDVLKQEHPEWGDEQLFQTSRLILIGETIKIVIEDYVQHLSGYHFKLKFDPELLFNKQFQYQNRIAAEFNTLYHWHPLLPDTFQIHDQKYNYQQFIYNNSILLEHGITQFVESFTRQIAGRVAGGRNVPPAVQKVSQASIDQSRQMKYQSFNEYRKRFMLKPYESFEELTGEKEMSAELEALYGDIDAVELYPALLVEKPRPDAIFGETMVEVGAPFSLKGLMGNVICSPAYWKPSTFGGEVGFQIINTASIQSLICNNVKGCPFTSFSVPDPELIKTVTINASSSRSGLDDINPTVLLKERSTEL

[2] = biological target: T2, Prostaglandin G/H synthase 1 (Homo sapiens, UniProt P23219); test: Binding affinity to COX1 (unknown origin)
Rattus norvegicus [3] = test: Anti-inflammatory activity in Rattus norvegicus Wistar (rat) assessed as inhibition of carrageenan-induced paw edema at 10 mg/kg administered for 1 hr followed by carrageenan challenge measured at 4 hr relative to control; format: functional
[4] = biological target: T2, Prostaglandin G/H synthase 1; test: Inhibition of COX1 (unknown origin)
Rattus norvegicus [5] = species: Rattus norvegicus; test: Toxicity in Rattus norvegicus Wistar (rat); format: organism-based; conditions: in vivo
Rattus norvegicus [6] = test: Anti-inflammatory activity in Rattus norvegicus Wistar (rat) assessed as inhibition of carrageenan-induced paw edema at 10 mg/kg administered for 1 hr followed by carrageenan challenge measured at 2 hr relative to control; format: functional
Rattus norvegicus [7] = test: Anti-inflammatory activity in Rattus norvegicus Wistar (rat) assessed as decrease in cotton pellet-induced dry granuloma weight at 10 mg/kg, po administered for 7 days measured on day 8; format: functional, organism-based; parameters: dose 10 mg/kg
Rattus norvegicus [8] = test: Anti-inflammatory activity in Rattus norvegicus Wistar (rat) assessed as inhibition of carrageenan-induced paw edema at 10 mg/kg administered for 1 hr followed by carrageenan challenge measured at 3 hr relative to control; format: functional
Rattus norvegicus [9] = test: Anti-inflammatory activity in Rattus norvegicus Wistar (rat) assessed as decrease in cotton pellet-induced final granuloma weight at 10 mg/kg, po administered for 7 days measured on day 8; format: functional, organism-based; parameters: dose 10 mg/kg
Rattus norvegicus [10] = test: Anti-inflammatory activity in Rattus norvegicus Wistar (rat) assessed as inhibition of carrageenan-induced paw edema at 10 mg/kg administered for 1 hr followed by carrageenan challenge measured at 1 hr relative to control; format: functional
Rattus norvegicus [11] = test: Anti-inflammatory activity in Rattus norvegicus Wistar (rat) assessed as decrease in cotton pellet-induced wet granuloma weight at 10 mg/kg, po administered for 7 days measured on day 8; format: functional, organism-based; parameters: dose 10 mg/kg
[12] = biological target: T3, Prostaglandin G/H synthase 2 (Homo sapiens) (UniProt P35354); test: Inhibition of COX2 (unknown origin) at 10 uM
T3 sequence (whole entry): T1 sequence (P35354 whole entry)

Rattus norvegicus [13] = test: Ulcerogenic activity in Rattus norvegicus Wistar (rat) stomach at 10 mg/kg, po relative to vehicle-treated control; format: toxicity, organism-based; parameters: dose 10 mg/kg, route oral; conditions: in vivo
Rattus norvegicus [14] = test: Anti-inflammatory activity in Rattus norvegicus Wistar (rat) assessed as cotton pellet-induced final granuloma weight at 10 mg/kg, po administered for 7 days measured on day 8 (reference value: 110.3 +/- 8.7 mg); format: functional
Rattus norvegicus [15] = test: Gastrointestinal toxicity in Rattus norvegicus Wistar (rat) stomach assessed as appearance of redness at 10 mg/kg, po relative to vehicle-treated control; format: organism-based; parameters: dose 10 mg/kg, route oral; conditions: in vivo
Rattus norvegicus [16] = test: Gastrointestinal toxicity in Rattus norvegicus Wistar (rat) duodenum assessed as appearance of redness at 10 mg/kg, po relative to vehicle-treated control; format: organism-based; parameters: dose 10 mg/kg, route oral; conditions: in vivo
[17] = biological target: T2, Prostaglandin G/H synthase 1; test: Inhibition of COX1 (unknown origin) at 1 uM
Rattus norvegicus [18] = test: Toxicity in Rattus norvegicus Wistar (rat) assessed as mortality at 5 mg/kg, po administered for 7 days measured on day 8; format: organism-based; parameters: dose 5 mg/kg, route oral; conditions: in vivo, 168 h
Rattus norvegicus [19] = test: Gastrointestinal toxicity in Rattus norvegicus Wistar (rat) duodenum assessed as appearance of redness at 5 mg/kg, po relative to vehicle-treated control; format: organism-based; parameters: dose 5 mg/kg, route oral; conditions: in vivo
Rattus norvegicus [20] = test: Anti-inflammatory activity in Rattus norvegicus Wistar (rat) assessed as inhibition of carrageenan-induced paw edema administered for 1 hr followed by carrageenan challenge measured at 4 hr relative to control; format: functional
Rattus norvegicus [21] = test: Anti-inflammatory activity in Rattus norvegicus Wistar (rat) assessed as inhibition of carrageenan-induced paw edema administered for 1 hr followed by carrageenan challenge measured at 3 hr relative to control; format: functional
Rattus norvegicus [22] = test: Anti-inflammatory activity in Rattus norvegicus Wistar (rat) assessed as cotton pellet-induced final granuloma weight at 5 mg/kg, po administered for 7 days measured on day 8 (reference value: 110.3 +/- 8.7 mg); format: functional
Rattus norvegicus [23] = test: Anti-inflammatory activity in Rattus norvegicus Wistar (rat) assessed as inhibition of carrageenan-induced paw edema administered for 1 hr followed by carrageenan challenge measured at 2 hr relative to control; format: functional
Rattus norvegicus [24] = test: Ulcerogenic activity in Rattus norvegicus Wistar (rat) stomach at 5 mg/kg, po relative to vehicle-treated control; format: toxicity, organism-based; parameters: dose 5 mg/kg, route oral; conditions: in vivo
Rattus norvegicus [25] = test: Anti-inflammatory activity in Rattus norvegicus Wistar (rat) assessed as inhibition of carrageenan-induced paw edema administered for 1 hr followed by carrageenan challenge measured at 1 hr relative to control; format: functional
Rattus norvegicus [26] = test: Gastrointestinal toxicity in Rattus norvegicus Wistar (rat) stomach assessed as appearance of redness at 5 mg/kg, po relative to vehicle-treated control; format: organism-based; parameters: dose 5 mg/kg, route oral; conditions: in vivo

T2 sequence (P23219 whole entry): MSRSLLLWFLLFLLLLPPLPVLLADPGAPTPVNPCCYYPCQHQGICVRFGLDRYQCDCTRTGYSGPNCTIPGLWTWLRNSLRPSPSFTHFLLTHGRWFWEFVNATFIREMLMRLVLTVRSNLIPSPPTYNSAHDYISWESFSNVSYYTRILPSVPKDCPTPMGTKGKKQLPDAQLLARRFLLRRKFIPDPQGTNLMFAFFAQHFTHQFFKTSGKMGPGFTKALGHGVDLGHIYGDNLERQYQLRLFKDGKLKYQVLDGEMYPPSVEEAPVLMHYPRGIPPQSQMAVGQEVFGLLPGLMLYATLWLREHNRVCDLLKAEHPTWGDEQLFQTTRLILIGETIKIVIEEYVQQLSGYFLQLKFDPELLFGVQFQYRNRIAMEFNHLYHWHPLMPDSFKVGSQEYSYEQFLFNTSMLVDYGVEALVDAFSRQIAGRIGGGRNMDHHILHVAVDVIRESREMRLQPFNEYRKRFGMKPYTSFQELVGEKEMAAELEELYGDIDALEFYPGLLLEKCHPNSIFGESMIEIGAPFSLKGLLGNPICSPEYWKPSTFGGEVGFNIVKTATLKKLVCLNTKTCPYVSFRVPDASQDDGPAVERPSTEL

CC(C(=O)O)c1ccc(-c2cn3ccccc3n2)cc1 (stereo unspecified) [MIROPROFEN] showed a Kd [1] of 0.0481 µM and a Kd [2] of 0.185 µM.

With O=C(O)c1nc2ccccn2c1[N+](=O)[O-] the inhibition in vivo at 10 mg/kg (Rattus norvegicus [3]) was 14.2%, the inhibition [4] was “inactive” and the LD (Rattus norvegicus [5]) was 1000 mg/kg. It also gave a Kd [1] of 0.0501 µM, an inhibition in vivo at 10 mg/kg (Rattus norvegicus [6]) of 43.5% and a Kd [2] of 0.0156 µM. For the same molecule, the Activity (Rattus norvegicus [7]) was “Active”, the inhibition in vivo at 10 mg/kg (Rattus norvegicus [8]) was 24.4% and the Activity (Rattus norvegicus [9]) was “Active”. For the same molecule, the inhibition in vivo at 10 mg/kg (Rattus norvegicus [10]) was 57.2% and the Activity (Rattus norvegicus [11]) was “Active”.

For Nc1c(C(=O)O)nc2ccccn12, the inhibition in vivo at 10 mg/kg (Rattus norvegicus [3]) was 73.2%, the inhibition [4] was “inactive” and the LD (Rattus norvegicus [5]) was 1000 mg/kg. The Kd [1] was 0.448 µM, the inhibition [12] was 20% and the inhibition in vivo at 10 mg/kg (Rattus norvegicus [6]) was 76.7%. The Activity (Rattus norvegicus [13]) was “Non-toxic”, the Kd [2] was 0.262 µM and the Activity (Rattus norvegicus [7]) was “Active”. For the same molecule, the inhibition in vivo at 10 mg/kg (Rattus norvegicus [8]) was 80.3%, the inhibition in vivo at 10 mg/kg (Rattus norvegicus [10]) was 61.3% and the Activity (Rattus norvegicus [11]) was “Active”. The Activity (Rattus norvegicus [14]) was 70.5 mg, the Activity (Rattus norvegicus [15]) was “Non-toxic” and the Activity (Rattus norvegicus [16]) was “Non-toxic”.

In the case of CCOC(=O)c1nc2ccccn2c1[N+](=O)[O-], the inhibition in vivo at 10 mg/kg (Rattus norvegicus [3]) is reported as 14.2%, the inhibition [4] is reported as “inactive” and the LD (Rattus norvegicus [5]) is reported as 1000 mg/kg. The Kd [1] was 0.227 µM, the inhibition in vivo at 10 mg/kg (Rattus norvegicus [6]) was 43.1% and the Kd [2] was 1.04 µM. The inhibition in vivo at 10 mg/kg (Rattus norvegicus [8]) was 25.4% and the inhibition in vivo at 10 mg/kg (Rattus norvegicus [10]) was 54.2%.

Molecule O=C(O)c1cn2ccccc2n1 has an inhibition in vivo at 10 mg/kg (Rattus norvegicus [3]) of 74%, an LD (Rattus norvegicus [5]) of 1000 mg/kg and a Kd [1] of 0.652 µM. For the same molecule, the inhibition in vivo at 10 mg/kg (Rattus norvegicus [6]) was 62.5%, the Kd [2] was 1.54 µM and the Activity (Rattus norvegicus [7]) was “Active”. The inhibition in vivo at 10 mg/kg (Rattus norvegicus [8]) was 69.4%, the Activity (Rattus norvegicus [9]) was “Active” and the inhibition in vivo at 10 mg/kg (Rattus norvegicus [10]) was 75.6%. The Activity (Rattus norvegicus [11]) was “Active” and the inhibition [17] was 15.6%.

COc1ccc2c(c1)c(CC(=O)O)c(C)n2C(=O)c1ccc(Cl)cc1 [INDOMETHACIN] was tested, and the Activity (Rattus norvegicus [18]) was “Toxic”, the Activity (Rattus norvegicus [19]) was “Toxic” and the “inhibition (INH)” value (Rattus norvegicus [20]) was 74.6%. The “inhibition (INH)” value (Rattus norvegicus [21]) was 77.3%, the Activity (Rattus norvegicus [22]) was 42.3 mg and the “inhibition (INH)” value (Rattus norvegicus [23]) was 65.5%. The Activity (Rattus norvegicus [24]) was “Toxic”, the “inhibition (INH)” value (Rattus norvegicus [25]) was 62.6% and the Activity (Rattus norvegicus [26]) was “Toxic”.
